Reference: patent US20260232709A1, “COMPOSITION COMPRISING MELOSIDE FOR ALLEVIATING HAIR LOSS AND IMPROVING HAIR GROWTH” (MORECHEM CO., LTD., priority 2024, published 2026)
“Also recorded” adds a separate entry of the source.

How the values were obtained:
Format in all cases: cell-based, human
[1] = test system: dermal papilla cells (HDPC); test: Protection against DHT-induced death of dermal papilla cells (CCK-8); conditions: 30 or 100 ppm for 1 day, then DHT, FIG. 9
Method: (§1) Specifically, HDPC were treated with Meloside A or L at concentrations of 30 or 100 ppm, respectively, for 1 day, and then cell death was induced with Dihydrotestosterone (DHT), For comparison, HDPC that were neither treated with Meloside A or L nor with DHT were used as the negative control group. HDPC treated with DHT but without Meloside A and L were used as the untreated group. HDPC treated with 100 μM Minoxidil or 5 mM NAC (N-acetyl cysteine) followed by DHT treatment were used as the positive control group.
(§2) CCK-8 (Cell Counting Kit-8, Dojindo, EU) reagent was added to the HDPC according to the manufacturer's protocol, and absorbance was measured at a wavelength of 450 nm using a microplate reader (BioTeK, USA) to confirm the cell viability of dermal papilla cells because of Meloside treatment, compared to the negative control group (treated with DMEM instead of Meloside A or L).

[2] = test system: Androgen Receptor (AR); test: Androgen receptor expression in DHT-treated HDPC (Western blot); conditions: HDPC pre-treated with 1 μM DHT, 30 or 100 ppm, 1 day, FIGS. 3 and 4
Method: Human hair dermal papilla cells (HDPC), used in the test examples described below, were cultured in Dulbecco's Modified Eagle Medium (DMEM, WELGENE) supplemented with 10% Fetal Bovine Serum (FBS, WELGENE) and 1% antibiotics (Penicillin-Streptomycin, WELGENE) as the culture medium, in an incubator at 37° C., 5% CO2, and humid conditions.
Specifically, the following groups were prepared: (i) a negative control group, where neither Dihydrotestosterone (DHT) nor Meloside A and L were treated on human dermal papilla cells (HDPC); (ii) an untreated group, where 1 μM DHT was treated on HDPC, but neither Meloside A nor L was treated; (iii) a positive control group, where 1 μM DHT was treated on HDPC, followed by treatment with 100 μM Minoxidil instead of Meloside A and L; and (iv) a treated group, where HDPC were first treated with 1 μM DHT to activate androgen receptors, and then treated with Meloside A or L at concentrations of 30 or 100 ppm, respectively, for 1 day. After preparation, the HDPC from (i) to (iv) were lysed, and the increase or decrease in the expression level of Androgen Receptor (AR) was confirmed using the Western blot technique. Here, for the analysis of relative expression patterns for each sample, the expression level was normalized based on the expression level of Actin. […]

[3] = test system: reactive oxygen species (ROS); test: DHT-induced intracellular reactive oxygen species in HDPC (DCF-DA fluorescence); conditions: 30 or 100 ppm with 100 μg/mL DHT, 24 hours, FIGS. 12 and 13
Method: The intracellular reactive oxygen species inhibition effect was evaluated using human hair dermal papilla cells (HDPC). Measurement was performed by utilizing the principle that the non-fluorescent substance 2′,7′-dichlorodihydrofluorescein diacetate (DCF-DA) reacts with intracellularly generated free radicals and oxidizes into the fluorescent substance 2′,7′-dichlorofluorescein (DCF).
Human dermal papilla cells were seeded into 12-well plates at 5.5×10^4 cells/well and cultured for 24 hours in a 37° C., 5% CO2 incubator. Subsequently, samples prepared at various concentrations were treated into each well and cultured for 23 hours in a 37° C., 5% CO2 incubator. For the treated groups, Meloside A or L at 30 or 100 ppm were treated along with DHT. For control groups, HDPC treated with 100 μg/mL DHT but without Meloside A and L, and untreated HDPC (neither Meloside A or L nor DHT) were used. […] After removing DCF-DA and washing twice with PBS, images were taken every 10 minutes for 30 minutes using a fluorescence microscope at Ex 485 nm and Em 535 nm. The level of intracellular reactive oxygen species generation was measured by quantifying fluorescence intensity in […] using Image J, thereby confirming the ROS reduction efficacy of Meloside.

[4] = test system: DKK1; test: DKK1 expression in DHT-treated HDPC supernatant (ELISA); conditions: HDPC treated with DHT, 30 or 100 ppm, 1 day, FIG. 7
Method: HDPC were treated with DHT to increase DKK1 expression, and then treated with Meloside A or L at concentrations of 30 or 100 ppm, respectively, for 1 day to obtain the cell supernatant. For comparison, HDPC treated with Dihydrotestosterone (DHT) but without Meloside A and L were used as the untreated group, and HDPC treated with 100 μM Minoxidil were used as the positive control group.
The increase or decrease in DKK1 expression level in the obtained cell supernatant was confirmed through an Enzyme-Linked Immunosorbent Assay (ELISA) method, and the results are shown in FIG. 7.

[5] = test system: IL-6 (Interleukin 6); test: IL-6 expression in DHT-treated HDPC supernatant (ELISA); conditions: HDPC treated with 100 μg/mL DHT, 30 or 100 ppm, 1 day, FIG. 11
Method: Specifically, the following groups were prepared: (i) a negative control group, where neither Dihydrotestosterone (DHT) nor Meloside A and L were treated on human dermal papilla cells (HDPC); (ii) an untreated group, where 100 μg/mL DHT was treated on HDPC, but neither Meloside A nor L was treated; (iii) a positive control group, where HDPC were treated with 100 μM Minoxidil or 20 μM Dexamethasone (DEX); and (iv) a treated group, where HDPC were first treated with 100 μg/mL DHT to increase IL-6 expression, and then treated with Meloside A or L at concentrations of 30 or 100 ppm, respectively, for 1 day. After preparation, the cell supernatants from HDPC of (i) to (iv) were obtained, and the increase or decrease in the expression level of IL-6 (Interleukin 6) was confirmed using an Enzyme-Linked Immunosorbent Assay (ELISA). For the analysis of expression patterns for each sample, normalization was performed based on a standard sample of IL-6, and the results are shown in FIG. 11.

[6] = test system: dermal papilla cells (HDPC); test: Protection against DKK1-induced death of dermal papilla cells (CCK-8); conditions: 30 or 100 ppm for 1 day, then DKK1, FIG. 10
Method: as §1, with “DKK1 (dickkopf WNT signaling pathway inhibitor 1).” for “Dihydrotestosterone (DHT),”, “NAC” for “NAC (N-acetyl cysteine)”
as §2

| SMILES | cell protective effect against DHT (cell viability) [1] | androgen receptor (AR) expression level, normalized to Actin [2] | reactive oxygen species (ROS) generation [3] | DKK1 expression level [4] | IL-6 expression level [5] | cell protective effect against DKK1 (cell viability) [6] |
| --- | --- | --- | --- | --- | --- | --- |
| O=c1cc(-c2ccc(O)c(O)c2)oc2cc(O)c([C@@H]3O[C@H](CO)[C@@H](O)[C@H](O)[C@H]3O[C@@H]3O[C@H](CO)[C@@H](O)[C@H](O)[C@H]3O)c(O)c12 [Meloside L, isoorientin 2″-O-glucoside] | no cell protective effect against DHT was observed | concentration-dependent | reduction in reactive oxygen species (ROS) generation | no effect was observed | no IL-6 expression reduction effect was observed | no cell protective effect against DKK1 was observed |
| O=c1cc(-c2ccc(O)cc2)oc2cc(O)c([C@@H]3O[C@H](CO)[C@@H](O)[C@H](O)[C@H]3O[C@@H]3O[C@H](CO)[C@@H](O)[C@H](O)[C@H]3O)c(O)c12 [Meloside A, isovitexin 2″-O-glucoside] | cell protective effect against DHT was confirmed | concentration-dependent; also recorded: superior effect in decreasing the expression level of androgen receptor (AR) compared to Meloside L | reduction in reactive oxygen species (ROS) generation | concentration-dependent decrease in DKK1 expression | decrease in IL-6 expression | cell protective effect against DKK1 was confirmed |
